Laboratory results taken from ChEMBL document CHEMBL1909046, “DrugMatrix in vitro pharmacology data”.

Columns and labels:
[1] = DRUGMATRIX: Calcium Channel Type L, Phenylalkylamine radioligand binding (ligand: [3H] (-)-Desmethoxyverapamil (D-888)); format: cell membranes, Rattus norvegicus, Wistar, Brain, Membrane; details: Not Active = under 50% inhibition at 10 µM
[2] = molecular target: Carbonic anhydrase 2 (Homo sapiens, UniProt P00918); assay: DRUGMATRIX: Carbonic Anhydrase II enzyme inhibition (substrate: 4-Nitrophenyl acetate (4-NPA)); format: tissue-based, Erythrocyte; details: erythrocyte; Not Active = under 50% inhibition at 10 µM
[3] = molecular target: T1, C-X-C chemokine receptor type 2 (Homo sapiens, UniProt P25025); format: cell membranes, Membrane; details: cho-k1; further: in other assays of this panel Not Active means under 50% inhibition at 10 µM
T1 sequence (P25025 whole entry): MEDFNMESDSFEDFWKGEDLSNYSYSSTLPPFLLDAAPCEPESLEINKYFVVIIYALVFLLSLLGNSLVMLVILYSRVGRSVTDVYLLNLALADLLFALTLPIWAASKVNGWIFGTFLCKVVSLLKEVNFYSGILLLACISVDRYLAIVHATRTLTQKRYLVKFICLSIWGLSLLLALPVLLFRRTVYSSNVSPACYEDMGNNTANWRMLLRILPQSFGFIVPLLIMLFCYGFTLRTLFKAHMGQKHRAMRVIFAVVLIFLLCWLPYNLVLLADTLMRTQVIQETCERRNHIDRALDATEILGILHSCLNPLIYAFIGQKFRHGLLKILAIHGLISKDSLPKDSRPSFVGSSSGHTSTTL

[4] = molecular target: T2, D(4) dopamine receptor (Homo sapiens, UniProt P21917); assay: DRUGMATRIX: Dopamine D4.2 radioligand binding (ligand: [3H] Spiperone); format: cell membranes, CHO-K1, Membrane; details: cho-k1; Not Active = under 50% inhibition at 10 µM
T2 sequence (P21917 whole entry): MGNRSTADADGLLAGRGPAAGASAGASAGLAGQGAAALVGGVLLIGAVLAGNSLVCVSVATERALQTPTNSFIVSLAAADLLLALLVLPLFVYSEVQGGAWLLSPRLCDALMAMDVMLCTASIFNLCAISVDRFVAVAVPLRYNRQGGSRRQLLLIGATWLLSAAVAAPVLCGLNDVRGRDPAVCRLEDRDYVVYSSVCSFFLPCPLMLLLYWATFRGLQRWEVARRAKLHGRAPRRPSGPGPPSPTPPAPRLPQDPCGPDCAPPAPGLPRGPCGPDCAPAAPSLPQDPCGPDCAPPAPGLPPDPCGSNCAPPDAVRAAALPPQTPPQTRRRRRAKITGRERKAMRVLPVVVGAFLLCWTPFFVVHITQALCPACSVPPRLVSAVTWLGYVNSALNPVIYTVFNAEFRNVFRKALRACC

[5] = molecular target: T3, Endothelin-1 receptor (Homo sapiens, UniProt P25101); format: cell membranes, CHO-K1, Membrane; details: cho-k1; further: in other assays of this panel Not Active means under 50% inhibition at 10 µM
T3 sequence (P25101 whole entry): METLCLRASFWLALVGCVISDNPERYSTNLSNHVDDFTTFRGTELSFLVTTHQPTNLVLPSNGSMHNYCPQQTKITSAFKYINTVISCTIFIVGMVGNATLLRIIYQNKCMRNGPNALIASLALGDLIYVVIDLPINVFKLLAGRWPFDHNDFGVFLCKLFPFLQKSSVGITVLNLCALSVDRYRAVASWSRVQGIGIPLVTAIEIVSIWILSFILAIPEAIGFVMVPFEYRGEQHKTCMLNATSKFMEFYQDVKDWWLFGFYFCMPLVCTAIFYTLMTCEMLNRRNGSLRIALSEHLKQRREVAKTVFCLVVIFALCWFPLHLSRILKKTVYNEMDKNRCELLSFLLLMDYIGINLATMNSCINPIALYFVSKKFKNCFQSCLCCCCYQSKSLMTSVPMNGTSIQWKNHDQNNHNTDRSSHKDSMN

[6] = DRUGMATRIX: GABAA, Muscimol, Central radioligand binding (ligand: [3H] Muscimol); format: cell membranes, Rattus norvegicus, Wistar, Brain, Membrane; details: Not Active = under 50% inhibition at 10 µM
[7] = molecular target: Melanocortin receptor 4 (Homo sapiens, UniProt P32245); format: cell membranes, Membrane; details: hek293; further: in other assays of this panel Not Active means under 50% inhibition at 10 µM
Chain of Melanocortin receptor 4 (P32245 whole entry): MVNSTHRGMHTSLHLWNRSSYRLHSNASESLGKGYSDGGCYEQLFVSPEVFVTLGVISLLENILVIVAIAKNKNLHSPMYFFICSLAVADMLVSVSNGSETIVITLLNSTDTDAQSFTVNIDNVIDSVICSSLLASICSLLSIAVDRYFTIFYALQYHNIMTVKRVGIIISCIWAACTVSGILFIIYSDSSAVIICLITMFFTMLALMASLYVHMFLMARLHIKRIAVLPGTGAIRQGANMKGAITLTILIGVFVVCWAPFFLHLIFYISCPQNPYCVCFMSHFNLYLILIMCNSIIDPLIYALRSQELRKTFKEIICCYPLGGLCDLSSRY

[8] = molecular target: Cytochrome P450 2D6 (Homo sapiens, UniProt P10635); details: bti-tn-5b1-4; further: in other assays of this panel Not Active means under 50% inhibition at 10 µM
Chain of Cytochrome P450 2D6 (P10635 whole entry): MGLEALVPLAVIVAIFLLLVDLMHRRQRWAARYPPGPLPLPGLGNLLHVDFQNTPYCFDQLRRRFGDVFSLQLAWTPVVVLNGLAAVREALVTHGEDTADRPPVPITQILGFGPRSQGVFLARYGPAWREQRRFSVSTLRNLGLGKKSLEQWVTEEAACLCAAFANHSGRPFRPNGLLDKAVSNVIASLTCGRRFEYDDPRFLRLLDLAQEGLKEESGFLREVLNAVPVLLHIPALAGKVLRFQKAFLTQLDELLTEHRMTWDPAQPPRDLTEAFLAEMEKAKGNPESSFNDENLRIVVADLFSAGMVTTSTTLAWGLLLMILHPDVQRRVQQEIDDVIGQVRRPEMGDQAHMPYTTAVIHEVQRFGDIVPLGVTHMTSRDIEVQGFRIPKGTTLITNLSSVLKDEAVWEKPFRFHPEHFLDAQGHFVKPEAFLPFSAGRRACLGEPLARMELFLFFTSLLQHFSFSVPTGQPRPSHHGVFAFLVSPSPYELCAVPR

CC[C@H]1OC(=O)[C@H](C)[C@@H](O[C@H]2C[C@@](C)(OC)[C@@H](O)[C@H](C)O2)[C@H](C)[C@@H](O[C@@H]2O[C@H](C)C[C@H](N(C)C)[C@H]2O)[C@](C)(O)C[C@@H](C)CN(C)[C@H](C)[C@@H](O)[C@]1(C)O [AZITHROMYCIN]
Not Active: IC50 [1] | Ki [1] | IC50 [2] | IC50 [3] | IC50 [4] | IC50 [5] | IC50 [6] | Ki [6] | IC50 [7] | IC50 [8] | Ki [8]

CC(C)(C)c1ccc(S(=O)(=O)/C=C/C#N)cc1 [BAY-11-7085]
Not Active: IC50 [1] | Ki [1] | IC50 [2] | IC50 [3] | IC50 [4] | IC50 [5] | IC50 [6] | Ki [6] | IC50 [7] | IC50 [8] | Ki [8]

CCc1oc2ccccc2c1C(=O)c1cc(Br)c(O)c(Br)c1 [BENZBROMARONE]
Not Active: IC50 [1] | Ki [1] | IC50 [2] | IC50 [3] | IC50 [4] | IC50 [5] | IC50 [6] | Ki [6] | IC50 [7] | IC50 [8] | Ki [8]

O=c1cc(-c2ccccc2)oc2ccc3ccccc3c12 [BETA-NAPHTHOFLAVONE]
Not Active: IC50 [1] | Ki [1] | IC50 [2] | IC50 [3] | IC50 [4] | IC50 [5] | IC50 [6] | Ki [6] | IC50 [7] | IC50 [8] | Ki [8]

CC(C)C[C@H]1C(=O)N2CCC[C@H]2[C@]2(O)O[C@](NC(=O)[C@@H]3C=C4c5cccc6[nH]c(Br)c(c56)C[C@H]4N(C)C3)(C(C)C)C(=O)N12 [BROMOCRIPTINE]
Not Active: IC50 [1] | Ki [1] | IC50 [2] | IC50 [3] | IC50 [4] | IC50 [5] | IC50 [6] | Ki [6] | IC50 [7] | IC50 [8] | Ki [8]

CS(=O)(=O)OCCCCOS(C)(=O)=O [BUSULFAN]
Not Active: IC50 [1] | Ki [1] | IC50 [2] | IC50 [3] | IC50 [4] | IC50 [5] | IC50 [6] | Ki [6] | IC50 [7] | IC50 [8] | Ki [8]

O=C(/C=C/c1ccc(O)c(O)c1)OCCc1ccccc1 [CAFFEIC ACID PHENETHYL ESTER]
Not Active: IC50 [1] | Ki [1] | IC50 [2] | IC50 [3] | IC50 [4] | IC50 [5] | IC50 [6] | Ki [6] | IC50 [7] | IC50 [8] | Ki [8]

COc1cc(CNC(=O)CCCC/C=C/C(C)C)ccc1O [CAPSAICIN]
Not Active: IC50 [1] | Ki [1] | IC50 [2] | IC50 [3] | IC50 [4] | IC50 [5] | IC50 [6] | Ki [6] | IC50 [7] | IC50 [8] | Ki [8]

NC(=O)N1c2ccccc2C=Cc2ccccc21 [CARBAMAZEPINE]
Not Active: IC50 [1] | Ki [1] | IC50 [2] | IC50 [3] | IC50 [4] | IC50 [5] | IC50 [6] | Ki [6] | IC50 [7] | IC50 [8] | Ki [8]

CCOC(=O)n1ccn(C)c1=S [CARBIMAZOLE]
Not Active: IC50 [1] | Ki [1] | IC50 [2] | IC50 [3] | IC50 [4] | IC50 [5] | IC50 [6] | Ki [6] | IC50 [7] | IC50 [8] | Ki [8]

Oc1ccccc1O [CATECHOL]
Not Active: IC50 [1] | Ki [1] | IC50 [2] | IC50 [3] | IC50 [4] | IC50 [5] | IC50 [6] | Ki [6] | IC50 [7] | IC50 [8] | Ki [8]

CO[C@@]1(NC(=O)CSCC#N)C(=O)N2C(C(=O)O)=C(CSc3nnnn3C)CS[C@@H]21 [CEFMETAZOLE]
Not Active: IC50 [1] | Ki [1] | IC50 [2] | IC50 [3] | IC50 [4] | IC50 [5] | IC50 [6] | Ki [6] | IC50 [7] | IC50 [8] | Ki [8]

CN(C(=O)CCCOc1ccc2[nH]c(=O)ccc2c1)C1CCCCC1 [CILOSTAMIDE]
Not Active: IC50 [1] | Ki [1] | IC50 [2] | IC50 [3] | IC50 [4] | IC50 [5] | IC50 [6] | Ki [6] | IC50 [7] | IC50 [8] | Ki [8]

CC(C)(Oc1ccc(C2CC2(Cl)Cl)cc1)C(=O)O (centres undefined) [CIPROFIBRATE]
Not Active: IC50 [1] | Ki [1] | IC50 [2] | IC50 [3] | IC50 [4] | IC50 [5] | IC50 [6] | Ki [6] | IC50 [7] | IC50 [8] | Ki [8]

Nc1nc(Cl)nc2c1ncn2[C@H]1C[C@H](O)[C@@H](CO)O1 [CLADRIBINE]
Not Active: IC50 [1] | Ki [1] | IC50 [2] | IC50 [3] | IC50 [4] | IC50 [5] | IC50 [6] | Ki [6] | IC50 [7] | IC50 [8] | Ki [8]

CC[C@H]1OC(=O)[C@H](C)[C@@H](O[C@H]2C[C@@](C)(OC)[C@@H](O)[C@H](C)O2)[C@H](C)[C@@H](O[C@@H]2O[C@H](C)C[C@H](N(C)C)[C@H]2O)[C@](C)(OC)C[C@@H](C)C(=O)[C@H](C)[C@@H](O)[C@]1(C)O [CLARITHROMYCIN]
Not Active: IC50 [1] | Ki [1] | IC50 [2] | IC50 [3] | IC50 [4] | IC50 [5] | IC50 [6] | Ki [6] | IC50 [7] | IC50 [8] | Ki [8]

O=C(O)c1cc(=O)c2c(OCC(O)COc3cccc4oc(C(=O)O)cc(=O)c34)cccc2o1 [CROMOLYN]
Not Active: IC50 [1] | Ki [1] | IC50 [2] | IC50 [3] | IC50 [4] | IC50 [5] | IC50 [6] | Ki [6] | IC50 [7] | IC50 [8] | Ki [8]

O=P1(N(CCCl)CCCl)NCCCO1 (centres undefined) [CYCLOPHOSPHAMIDE ANHYDROUS]
Not Active: IC50 [1] | Ki [1] | IC50 [2] | IC50 [3] | IC50 [4] | IC50 [5] | IC50 [6] | Ki [6] | IC50 [7] | IC50 [8] | Ki [8]

CC(=O)O[C@]1(C(C)=O)CC[C@H]2[C@@H]3C=C(Cl)C4=CC(=O)[C@@H]5C[C@@H]5[C@]4(C)[C@H]3CC[C@@]21C [CYPROTERONE ACETATE]
Not Active: IC50 [1] | Ki [1] | IC50 [2] | IC50 [3] | IC50 [4] | IC50 [5] | IC50 [6] | Ki [6] | IC50 [7] | IC50 [8] | Ki [8]
